In the experiment the target is T1, hNPRA (Homo sapiens, UniProt P16066).
T1 construct: expressed in transfected cells
T1 sequence (P16066 33-1061): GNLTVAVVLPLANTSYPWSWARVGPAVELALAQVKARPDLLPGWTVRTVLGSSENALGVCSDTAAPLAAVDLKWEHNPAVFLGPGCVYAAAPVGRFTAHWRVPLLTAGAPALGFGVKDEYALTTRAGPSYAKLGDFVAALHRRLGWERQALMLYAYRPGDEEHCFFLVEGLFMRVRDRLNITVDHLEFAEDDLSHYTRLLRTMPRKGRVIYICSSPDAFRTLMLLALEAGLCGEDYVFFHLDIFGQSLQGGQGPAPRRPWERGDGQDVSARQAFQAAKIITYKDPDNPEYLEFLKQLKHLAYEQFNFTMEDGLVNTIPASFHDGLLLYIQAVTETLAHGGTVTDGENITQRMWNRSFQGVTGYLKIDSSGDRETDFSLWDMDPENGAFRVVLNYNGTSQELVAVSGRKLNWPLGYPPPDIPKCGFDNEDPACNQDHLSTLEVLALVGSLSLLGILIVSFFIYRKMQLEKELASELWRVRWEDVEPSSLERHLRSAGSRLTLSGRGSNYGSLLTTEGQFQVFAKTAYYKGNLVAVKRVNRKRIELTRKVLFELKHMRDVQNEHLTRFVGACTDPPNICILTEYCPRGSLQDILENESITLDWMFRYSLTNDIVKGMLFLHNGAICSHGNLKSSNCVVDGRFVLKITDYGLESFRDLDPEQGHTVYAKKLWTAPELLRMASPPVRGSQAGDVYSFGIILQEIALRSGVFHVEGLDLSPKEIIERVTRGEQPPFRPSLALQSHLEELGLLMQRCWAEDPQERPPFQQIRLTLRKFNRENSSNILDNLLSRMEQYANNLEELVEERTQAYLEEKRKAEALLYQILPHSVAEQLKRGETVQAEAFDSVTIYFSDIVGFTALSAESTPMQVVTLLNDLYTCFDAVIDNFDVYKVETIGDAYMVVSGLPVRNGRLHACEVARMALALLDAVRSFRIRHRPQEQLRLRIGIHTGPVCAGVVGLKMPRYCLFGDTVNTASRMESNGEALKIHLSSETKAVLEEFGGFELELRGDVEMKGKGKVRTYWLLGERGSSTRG
Description: NPRA Functional Cell Assay (cGMP HTRF, NPRA HEK JumpIn stable cells). It counts as cell-based. As to conditions: cGMP production, 1 hour at 37° C., 10-point dose response. In a few lines: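 cGMP HTRF read-out after 1 hour compound treatment at 37° C. of human NPRA-expressing HEK JumpIn cells, 1500 cells/well, in buffer with phosphodiesterase inhibitors IBMX and RO20 (100 uM each). Signal converted to [cGMP] by calibration curve; EC50s fitted by 4-parameter logistic; 50 nM h-ANP as positive response.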
(In TR-FRET formats the signal depends on donor and acceptor labels being close together.)
On to `CC(C)(C)[C@H]1CCc2nc3sc(C(=O)N[C@H](CCN(CCO)CCO)c4ccc(-c5ccc(=O)[nH]c5)cc4)cc3cc2C1` (racemic) [Example 34, rac-(6S)-6-tert-butyl-N-[rac-(1R)-3-[bis(2-hydroxyethyl)amino]-1-[4-(6-oxo-1H-pyridin-3-yl)phenyl]propyl]-5,6,7,8-tetrahydrothieno[2,3-b]quinoline-2-carboxamide], for which the EC50 (usually the concentration needed to bring the measured effect to its halfway point) was determined as 530 nM.
`CC(C)(C)[C@H]1CCc2nc3sc(C(=O)N[C@H](CCN4CCC(n5ncnn5)CC4)c4ccc(-c5ccc(=O)[nH]c5)cc4)cc3cc2C1` (racemic) [Example 35, rac-(6S)-6-tert-butyl-N-[rac-(1R)-1-[4-(6-oxo-1H-pyridin-3-yl)phenyl]-3-[4-(tetrazol-2-yl)piperidin-1-ium-1-yl]propyl]-5,6,7,8-tetrahydrothieno[2,3-b]quinoline-2-carboxamide;formate] displayed an EC50 of 535 nM.
Molecule `CC(C)(C)[C@H]1CCc2nc3sc(C(=O)N[C@H](CCNC4CCOCC4)c4ccc(-c5ccc(=O)[nH]c5)cc4)cc3cc2C1` (racemic) [Example 36, [rac-(3R)-3-[4-(6-oxo-1H-pyridin-3-yl)phenyl]-3-[rac-(6S)-6-tert-butyl-5,6,7,8-tetrahydrothieno[2,3-b]quinoline-2-carbonyl]amino]propyl]-tetrahydropyran-4-yl-ammonium;formate] returned a concentration giving a half-maximal response (EC50) of 557 nM.
`CC(C)(C)[C@H]1CCc2nc3sc(C(=O)N[C@H](CCN[C@@H]4C[C@@H](O)[C@@H](O)C4)c4ccc(-c5ccc(=O)[nH]c5)cc4)cc3cc2C1` (racemic) [Example 37, [rac-(3R,4S)-3,4-dihydroxycyclopentyl]-[rac-(3R)-3-[4-(6-oxo-1H-pyridin-3-yl)phenyl]-3-[[rac-(6S)-6-tert-butyl-5,6,7,8-tetrahydrothieno[2,3-b]quinoline-2-carbonyl]amino]propyl] ammonium;formate] showed an EC50 of 575 nM. The EC50 values of the last two molecules are within 1.5-fold of each other.
For `CC(C)(C)[C@H]1CCc2nc3sc(C(=O)N[C@H](CCN4CCC[C@H]4CO)c4ccc(-c5ccc(=O)[nH]c5)cc4)cc3cc2C1` (racemic) [Example 38, rac-(6S)-6-tert-butyl-N-[rac-(1R)-1-[4-(6-oxo-1H-pyridin-3-yl)phenyl]-3-[rac-(2S)-2-(hydroxymethyl)pyrrolidin-1-ium-1-yl]propyl]-5,6,7,8-tetrahydrothieno[2,3-b]quinoline-2-carboxamide;formate] the value was 582 nM; for `CC(C)(C)[C@H]1CCc2nc3sc(C(=O)N[C@H](CCN[C@H]4C[C@@H](O)[C@@H](O)C4)c4ccc(-c5ccc(=O)[nH]c5)cc4)cc3cc2C1` (racemic) [Example 39, [rac-(3R,4S)-3,4-dihydroxycyclopentyl]-[rac-(3R)-3-[4-(6-oxo-1H-pyridin-3-yl)phenyl]-3-[[rac-(6S)-6-tert-butyl-5,6,7,8-tetrahydrothieno[2,3-b]quinoline-2-carbonyl]amino]propyl] ammonium;formate], 655 nM; for `CC(C)(C)[C@H]1CCc2nc3sc(C(=O)N[C@H](CCN4CCC5(CC4)CNC(=O)O5)c4ccc(-c5ccc(=O)[nH]c5)cc4)cc3cc2C1` (racemic) [Example 40, rac-(6S)-6-tert-butyl-N-[rac-(1R)-3-(2-oxo-1-oxa-3-aza-8-azoniaspiro[4.5]decan-8-yl)-1-[4-(6-oxo-1H-pyridin-3-yl)phenyl]propyl]-5,6,7,8-tetrahydrothieno[2,3-b]quinoline-2-carboxamide;formate], 655 nM.
`CC(C)(C)[C@H]1CCc2nc3sc(C(=O)N[C@H](CCN4CCC(O)C4)c4ccc(-c5ccc(=O)[nH]c5)cc4)cc3cc2C1` (mixture of isomers) [Example 41, rac-(6S)-6-tert-butyl-N-[rac-(1R)-3-(3-hydroxypyrrolidin-1-ium-1-yl)-1-[4-(6-oxo-1H-pyridin-3-yl)phenyl]propyl]-5,6,7,8-tetrahydrothieno[2,3-b]quinoline-2-carboxamide;formate] had an EC50 of 656 nM.
`CNCC[C@@H](NC(=O)c1cc2cc3c(nc2s1)CC[C@H](C(C)(C)C)C3)c1ccc(-c2ccc(=O)[nH]c2)cc1` (racemic) [Example 42, rac-(6S)-6-tert-butyl-N-[rac-(1R)-3-(methylamino)-1-[4-(6-oxo-1H-pyridin-3-yl)phenyl]propyl]-5,6,7,8-tetrahydrothieno[2,3-b]quinoline-2-carboxamide] returned an EC50 of 658 nM.
With `COC[C@@H]1CCCN1CC[C@@H](NC(=O)c1cc2cc3c(nc2s1)CC[C@H](C(C)(C)C)C3)c1ccc(-c2ccc(=O)[nH]c2)cc1` (racemic) [Example 43, rac-(6S)-6-tert-butyl-N-[rac-(1R)-1-[4-(6-oxo-1H-pyridin-3-yl)phenyl]-3-[rac-(2S)-2-(methoxymethyl)pyrrolidin-1-yl]propyl]-5,6,7,8-tetrahydrothieno[2,3-b]quinoline-2-carboxamide] the figure was 663 nM; with `CC(C)(C)[C@H]1CCc2nc3sc(C(=O)N[C@H](CCN4CCC(C(=O)O)CC4)c4ccc(-c5ccc(=O)[nH]c5)cc4)cc3cc2C1` (racemic) [Example 44, 1-[rac-(3R)-3-[4-(6-oxo-1H-pyridin-3-yl)phenyl]-3-[rac-(6S)-6-tert-butyl-5,6,7,8-tetrahydrothieno[2,3-b]quinoline-2-carbonyl]amino]propyl] piperidin-1-ium-4-carboxylic acid;formate], 665 nM.
With `CC1(O)CCN(CC[C@@H](NC(=O)c2cc3cc4c(nc3s2)CC[C@H](C(C)(C)C)C4)c2ccc(-c3ccc(=O)[nH]c3)cc2)CC1` (racemic) [Example 45, rac-(6S)-6-tert-butyl-N-[rac-(1R)-3-(4-hydroxy-4-methyl-piperidin-1-ium-1-yl)-1-[4-(6-oxo-1H-pyridin-3-yl)phenyl]propyl]-5,6,7,8-tetrahydrothieno[2,3-b]quinoline-2-carboxamide;formate], a half-maximal effect (EC50) was put at 673 nM.
Regarding `CC1(CN)CN(CC[C@@H](NC(=O)c2cc3cc4c(nc3s2)CC[C@H](C(C)(C)C)C4)c2ccc(-c3ccc(=O)[nH]c3)cc2)C1` (racemic) [Example 46, [3-methyl-1-[rac-(3R)-3-[4-(6-oxo-1H-pyridin-3-yl)phenyl]-3-[[rac-(6S)-6-tert-butyl-5,6,7,8-tetrahydrothieno[2,3-b]quinoline-2-carbonyl]amino]propyl]azetidin-3-yl]methylammonium;formate], the EC50 was determined as 673 nM.
Molecule `CC(C)(C)[C@H]1CCc2nc3sc(C(=O)N[C@H](CCN4CCCC5(CC5)C4)c4ccc(-c5ccc(=O)[nH]c5)cc4)cc3cc2C1` (racemic) [Example 47, rac-(6S)-6-tert-butyl-N-[rac-(1R)-3-(5-azoniaspiro[2.5]octan-5-yl)-1-[4-(6-oxo-1H-pyridin-3-yl)phenyl]propyl]-5,6,7,8-tetrahydrothieno[2,3-b]quinoline-2-carboxamide;formate] had an EC50 of 674 nM.
The molecule `CC(C)(C)[C@H]1CCc2nc3sc(C(=O)N[C@H](CCN4CC(O)C4)c4ccc(-c5ccc(=O)[nH]c5)cc4)cc3cc2C1` (racemic) [Example 48, rac-(6S)-6-tert-butyl-N-[rac-(1R)-3-(3-hydroxyazetidin-1-ium-1-yl)-1-[4-(6-oxo-1H-pyridin-3-yl)phenyl]propyl]-5,6,7,8-tetrahydrothieno[2,3-b]quinoline-2-carboxamide;formate] displayed an EC50 of 679 nM.
In the case of `CC(C)(C)[C@H]1CCc2nc3sc(C(=O)N[C@H](CCNCCO)c4ccc(-c5ccc(=O)[nH]c5)cc4)cc3cc2C1` (racemic) [Example 49, 2-hydroxyethyl-[rac-(3R)-3-[4-(6-oxo-1H-pyridin-3-yl)phenyl]-3-[[rac-(6S)-6-tert-butyl-5,6,7,8-tetrahydrothieno[2,3-b]quinoline-2-carbonyl]amino}propyl] ammonium;formate], the EC50 was found to be 682 nM.
On to `CN(CC[C@@H](NC(=O)c1cc2cc3c(nc2s1)CC[C@H](C(C)(C)C)C3)c1ccc(-c2ccc(=O)[nH]c2)cc1)C1CCCC1` (racemic) [Example 50, cyclopentyl-methyl-[rac-(3R)-3-[4-(6-oxo-1H-pyridin-3-yl)phenyl]-3-[rac-(6S)-6-tert-butyl-5,6,7,8-tetrahydrothieno[2,3-b]quinoline-2-carbonyl]amino]propyl] ammonium;formate], for which the EC50 is 696 nM.

The values are drawn from US12440496B2, “Natriuretic peptide receptor a agonists useful for the treatment of cardiometabolic diseases, kidney disease and diabetes” (Merck Sharp & Dohme LLC, priority 2019, dated 2025).
